Measurements from the METLIN SMRT retention time set (Domingo-Almenara et al. 2019).

Assay: gradient 5% acetonitrile 3 min, to 50% in 2 min, to 85% in 15 min, held 3 min, 100 µL/min
Details: column: Zorbax Extend-C18 2.1 x 50 mm; eluents: water / acetonitrile, 0.1% formic acid
In short: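 Each retention time is based on an adduct peak selected computationally and verified by manual inspection. Measurements used HPLC–quadrupole time-of-flight mass spectrometry in positive and negative ionization mode on mixtures of ~100 pure standards. Chromatography ran on a Zorbax Extend-C18 column (2.1 × 50 mm, 1.8 μm) at 100 μL/min with water and acetonitrile, each containing 0.1% formic acid, and dead and dwell volumes of 40 μL and 900 μL.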

Row | Structure (SMILES) | RP-LC retention time
1 | COc1ccc(-c2nnc(Cc3nc(-c4ccccc4C)no3)o2)cc1 | 1010 s
2 | Cc1ccc(-c2nnc(-c3cccnc3N3CCN(C(=O)c4ccc(Br)o4)CC3)o2)cc1 | 1020 s
3 | Cc1ccc(S(=O)(=O)N2CCCN(c3ccc(=O)n(-c4ccc(F)cc4)n3)CC2)cc1C | 937 s
4 | CCOc1ccc(-c2nc(CNC(=O)Nc3cc(OC)ccc3OC)c(C)o2)cc1 | 963 s
5 | CC(C)n1cnc2ccc(-c3noc(COc4ccc(Cl)cc4)n3)cc21 | 853 s
6 | CCNC(=O)Cc1nnc(-c2cccc(F)c2)o1 | 656 s
7 | Cc1ccc2c(c1)N(Cc1ccccc1)N=C(C(=O)N1CCOCC1)S2(=O)=O | 832 s
8 | CSc1ccc(CNC(=O)Cc2cn(C)c3ncccc23)cc1 | 686 s
9 | COc1ccc(-c2c(C)noc2NC(C)=O)cc1S(=O)(=O)N1CCc2ccccc2C1 | 807 s
10 | O=C(NC1CC1)[C@@H]1C[C@H](Oc2cccnc2)CN1C(=O)c1ccco1 | 538 s
11 | CNC(=O)c1cn(-c2ccc(S(=O)(=O)N3CCCC3)cn2)cn1 | 622 s
12 | O=C(C1COc2ccccc2O1)N1CCc2cc(-c3csc(C4CC4)n3)ccc21 (centres undefined) | 1190 s
13 | Cc1cc(N2CCCCC2)nc(N2CCN(C(=O)c3ccc(-c4ccccc4)cc3)CC2)n1 | 837 s
14 | Cc1nn(-c2ccc(Cl)nn2)c(C)c1Cl | 996 s
15 | COc1ccc(CN2C(=O)CN(C3CCCCC3)C(=O)C2c2cccs2)cc1 (centres undefined) | 915 s
16 | Cc1cccc(-c2noc(C3CCCN3C(=O)NCCc3ccccc3)n2)c1 (centres undefined) | 593 s
17 | O=C1CC(c2noc(-c3ccc(F)cc3)n2)CN1Cc1ccccc1 (centres undefined) | 931 s
18 | O=C(Cn1nc2c(N3CCCCCC3)nccn2c1=O)NC1CCCCC1 | 681 s
19 | C=CCn1c(C)c(CC(=O)NCC(C)C)c(=O)n2nc(-c3ccc(C)cc3)nc12 | 840 s
20 | COc1ccc(OC)c(-c2csc(-c3nnn(-c4ccc(C)c(C)c4)c3N)n2)c1 | 1230 s
21 | CCCN1CCc2cc(O)cc3c2[C@H]1Cc1ccc(O)c(O)c1-3 | 646 s
22 | COc1cc(C(=O)Nc2nc(-c3ccc(C)cc3)cs2)c(Br)c(OC)c1OC | 1120 s
23 | O=C(CN1CCN(Cc2ccc(F)cc2)C1=O)NCCc1ccncc1 | 596 s
24 | CCCCCC[C@H]1C(=O)O[C@H](C)[C@H](NC(=O)c2cccc(NC=O)c2O)C(=O)O[C@@H](C)[C@@H]1OC(=O)CC(C)C | 1100 s
25 | Cc1ccc(-c2cn3c(CC(=O)Nc4ccc(F)c(Cl)c4)csc3n2)cc1C | 678 s
26 | Cc1oc(C2CCN(C(=O)Nc3ccc4c(c3)CCC4)CC2)nc1C(=O)N(C)C | 766 s
27 | Cc1ccc(-c2nc(NC3CCCCC3C)c3ccccc3n2)cc1 (centres undefined) | 906 s
28 | Cc1cc(N2CCN(C(=O)c3cc4ccccc4o3)CC2)ncn1 | 559 s

Row | Structure (SMILES) | RP-LC retention time
29 | O=C(Nc1cnc(-c2cccc(Cl)c2)nc1)c1ccc(Br)o1 | 1140 s
30 | O=c1oc2cc(O)c(O)cc2c2c1CCC2 | 641 s
31 | Cc1ccc(C)c(NS(=O)(=O)c2cc(-c3[nH]ncc3C(=O)N(C)C)oc2C)c1 | 700 s
32 | COc1ccccc1CCNC(=O)Cn1cc(S(=O)(=O)c2ccccc2)c2ccccc21 | 898 s
33 | O=C(c1ccsc1)N1CCCC(c2nncn2-c2ccccc2)C1 (centres undefined) | 667 s
34 | O=C(Cn1c(=O)c2cc(-c3ccco3)nn2c2ncccc21)NC1CCCCC1 | 793 s
35 | O=C(Cn1ncc2c(N3CCN(c4ccccn4)CC3)ncnc21)Nc1ccc(Cl)cn1 | 616 s
36 | COc1ccccc1CNC(=O)Cn1cccc1-c1nnc(-c2ccccc2)o1 | 920 s
37 | CN(CCc1ccccn1)C(=O)c1cn2ccnc(-c3ccccc3)c2n1 | 563 s
38 | CCOC(=O)C1=C(CN(CC)CC)N(C)C(=O)NC1c1ccccc1 (centres undefined) | 618 s
39 | CCc1nc2c(NC(=O)c3cc(F)cc(F)c3)cccn2n1 | 851 s
40 | Cc1ccccc1Oc1nccn2c(=O)n(CC(=O)Nc3ccccc3F)nc12 | 853 s
41 | CCCC(=O)NC1CCN(c2cc(C)cc(C)c2)C1=O (centres undefined) | 750 s
42 | Cc1noc(-c2cccn2C)n1 | 744 s
43 | CCN1C(=O)COc2ccc(-c3csc(NC(=O)c4cccc(OC)c4)n3)cc21 | 967 s
44 | CCn1ncc(N2CCCC(CC(=O)O)C2)cc1=O (centres undefined) | 632 s
45 | COc1cccc(NC(=O)Cn2nc3c(Oc4cccc(F)c4)nccn3c2=O)c1 | 839 s
46 | O=c1c2cc(-c3ccc(F)cc3)nn2cnn1Cc1nc(-c2ccc(F)cc2)no1 | 1100 s
47 | COc1ccc2c(c1)C1(CCN(S(=O)(=O)c3cccc(F)c3)C1)C(=O)N2 (centres undefined) | 835 s
48 | O=C1CCCC(=O)N1CCS(=O)(=O)Nc1ccc(Cl)c(N2CCCS2(=O)=O)c1 | 657 s
49 | CCCCCN1CC(=O)N(c2ccc(OC)cc2)[C@@H]2CS(=O)(=O)C[C@@H]21 | 708 s
50 | Cc1ccc(C)c(-c2cc3c(=O)n(Cc4noc(-c5ccccc5)n4)ccn3n2)c1 | 860 s
51 | CCC(C)NC(=O)c1nccnc1NC(=O)c1ccc(C)cc1 (centres undefined) | 990 s
52 | CNC(=O)c1ccc(C)c(-n2c(C)cc(OCc3ccc(F)cc3F)c(Br)c2=O)c1 | 818 s
53 | O=C(Nc1ccc(SCc2ccccc2F)nn1)c1cccs1 | 942 s
54 | O=C(Nc1ccc(F)cc1)c1nnc(C(=O)N2CCC(C(=O)NCc3ccccn3)CC2)s1 | 909 s
55 | CS(=O)(=O)c1nc2ccc(NS(=O)(=O)c3ccc(Br)s3)cc2s1 | 888 s

The remaining lines, values ahead:

Row | RP-LC retention time | Structure (SMILES)
56 | 660 s | COc1ccc(S(=O)(=O)NCC2CCN(Cc3cc(C)oc3C)CC2)cc1Cl
57 | 829 s | O=C(C1CC1)N1CCc2sc(S(=O)(=O)Nc3cccc(F)c3)cc2C1
58 | 879 s | COc1ccc2c(CCNC(=O)COc3ccc(Cl)cc3)c[nH]c2c1
59 | 809 s | O=C(NCc1cccs1)c1ccc(Cn2ccnc2)cc1
60 | 1290 s | CCOc1ccccc1-c1noc(-c2nnn3c2COC(c2ccc(C)cc2C)C3)n1 (centres undefined)
61 | 659 s | CN(C1CCc2nn(CC3CC3)c(=O)n2CC1)S(=O)(=O)c1cccnc1 (centres undefined)
62 | 971 s | Cc1ccc(S(=O)(=O)N(C)C)cc1-c1nnc(-c2ccccc2)o1
63 | 995 s | Cc1ccc(C(CC(=O)N2CCN(c3ccccn3)CC2)n2cccc2)cc1 (centres undefined)
64 | 596 s | CCn1ccc(C(=O)NCC2Cn3cccc3C(=O)N2C)n1 (centres undefined)
65 | 873 s | Cc1cc2c(cc1S(=O)(=O)N1CCCC1C(=O)Nc1ccc(C(F)(F)F)cc1)OCC(=O)N2 (centres undefined)
66 | 910 s | CCOc1ccccc1N1CCN(S(=O)(=O)c2nn(CC)cc2C(=O)NCCOC)CC1
67 | 805 s | CC1=C(c2ccc(C)cc2)S(=O)(=O)N=C1N1CCC(NC(=O)c2ccoc2)CC1
68 | 668 s | CC(C)NC(=O)c1ccc(CN2CCN(Cc3ccc(F)cc3)C(=O)C2=O)cc1
69 | 878 s | COc1ccc(C(=O)NC2CCN(c3cc(C)cc(C)c3)C2=O)cc1 (centres undefined)
70 | 705 s | COc1ccc(OC)c(-c2cc(C(=O)N3CCC(C(=O)NCC(F)(F)F)CC3)[nH]n2)c1
71 | 878 s | COc1ccc(Cl)cc1NC(=O)Cn1ncc2c(c1=O)N(CC1CC1)C(=O)CS2
72 | 605 s | Cc1cc(C)n(-c2ccc(=O)n(CCNC(=O)CCn3cnc4ccccc4c3=O)n2)n1

Row | RP-LC retention time | Structure (SMILES)
73 | 612 s | COc1ccc(C2C(C(=O)NCCCN3CCOCC3)c3cc(OC)c(OC)cc3C(=O)N2C)cc1 (centres undefined)
74 | 627 s | Cc1ccc(NC(=O)N2CCN(C3=CC4=NC(C)CN4C=N3)CC2)c(C)c1 (centres undefined)
75 | 636 s | CC1CCC(NC(=O)C2CCCN(C(=O)c3cc(-c4cccnc4)n[nH]3)C2)CC1 (centres undefined)
76 | 836 s | CCN(C(=O)C1CCCN1S(=O)(=O)c1cc2c(cc1Cl)NC(=O)CO2)c1ccccc1 (centres undefined)
77 | 905 s | COC(=O)c1cccc(NC(=O)CSc2cc(N3CCN(c4ccc(OC)cc4)CC3)ncn2)c1
78 | 827 s | CC(C)c1nc2nccc(-c3ccccc3)n2n1
79 | 809 s | Cc1noc(C)c1C1CCCN1C(=O)Cc1ccc(Cl)cc1 (centres undefined)
80 | 722 s | CCOc1ccc(Nc2nc(-c3c(C)nc4ccccn34)cs2)cc1
81 | 667 s | CC(C)NC(=O)c1ccc(-c2nc3cc(NS(=O)(=O)Cc4ccccc4)ccc3n2C)cc1
82 | 557 s | CCN(CC)C(=O)c1cc2c(s1)CCC(C(=O)NCc1ccncc1)C2 (centres undefined)
83 | 1100 s | COc1ccc(C(=O)Nc2nc3c(s2)Cc2c(Br)ccc(OC)c2-3)cc1OC
84 | 559 s | O=C1OC(=O)C2C3CCC(O3)C12 (centres undefined)
85 | 692 s | O=C(CCc1c(-c2ccccc2)nc2ccccn12)Nc1cccc(Cl)c1
86 | 674 s | COCC(C)(O)CNC(=O)C(=O)NCc1ccc(C)cc1 (centres undefined)
87 | 770 s | CC(C)Cn1cc(CCNC(=O)c2ccccc2)c2cccnc21
88 | 942 s | c1ccc(-c2nc(-c3ccnc(N4CCOCC4)c3)no2)cc1
89 | 584 s | Cc1noc(C)c1CC(=O)N1CCOc2ccc(N(C)C)cc2C1
